Reference: US7192950B2, “Benzazepines and related heterocyclic derivatives which are useful as orexin receptor antagonists” (Actelion Pharmaceuticals, Ltd., priority 2000, dated 2007)

Tests used:
[1] = target: T1, human orexin-1 receptor (Homo sapiens, UniProt O43613); assay: Intracellular calcium measurements (FLIPR), OX1 receptor antagonist activity; format: cell-based; settings: CHO cells expressing human orexin-1 receptor; 10 nM orexin-A as agonist; fluo-3 calcium signal
T1 construct: expressed in transfected cells; host or cells: CHO cells (G418 selection)
T1 sequence (O43613 1-425): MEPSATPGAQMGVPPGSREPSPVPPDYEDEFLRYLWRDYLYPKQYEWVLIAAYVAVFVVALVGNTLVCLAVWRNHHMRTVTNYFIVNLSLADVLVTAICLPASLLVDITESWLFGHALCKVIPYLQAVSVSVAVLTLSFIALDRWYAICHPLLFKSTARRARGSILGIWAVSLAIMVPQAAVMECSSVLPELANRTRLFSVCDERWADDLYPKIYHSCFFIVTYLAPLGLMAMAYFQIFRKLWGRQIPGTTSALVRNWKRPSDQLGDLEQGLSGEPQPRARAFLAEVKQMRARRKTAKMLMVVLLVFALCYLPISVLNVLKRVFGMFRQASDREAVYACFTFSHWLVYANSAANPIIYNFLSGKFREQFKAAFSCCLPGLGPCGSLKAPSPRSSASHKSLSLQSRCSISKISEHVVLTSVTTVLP
Protocol: (§1) The OX1 and OX2 receptor antagonist activities of the compounds of general formula (I) were determined in accordance with the following experimental method.
(§2) Intracellular Calcium Measurements
(§3) Chinese hamster ovary (CHO) cells expressing the human orexin-1 receptor and the human orexin-2 receptor, respectively, were grown in culture medium (Ham F-12 with L Glutamine) containing 300 μg/ml G418, 100 U/ml penicillin, 100 μg/ml streptomycin and 10% inactivated foetal calf serum (FCS).
(§4) The cells were seeded at 80'000 cells/well into 96-well black clear bottom sterile plates (Costar) which had been precoated with 1% gelatine in Hanks' Balanced Salt Solution (HBSS). All reagents were from Gibco BRL.
(§5) The seeded plates were incubated overnight at 37° C. in 5% CO2.
(§6) Human orexin-A as an agonist was prepared as 1 mM stock solution in methanol:water (1:1), diluted in HBSS containing 0.1% BSA and 2 mM HEPES for use in the assay at a final concentration of 10 nM.
(§7) Antagonists were prepared as 10 mM stock solution in DMSO, then diluted in 96-well plates, first in DMSO, then in HBSS containing 0.1% bovine serum albumin (BSA) and 2 mM HEPES.
(§8) On the day of the assay, 100 μl of loading medium (HBSS containing 1% FCS, 2 mM HEPES, 5 mM probenecid (Sigma) and 3 μM of the fluorescent calcium indicator fluo-3 AM (1 mM stock solution in DMSO with 10% pluronic acid Molecular Probes)) was added to each well.
(§9) The 96-well plates were incubated for 60 min at 37° C. in 5% CO2. The loading solution was then aspirated and cells were washed 3 times with 200 μl HBSS containing 2.5 mM probenecid, 0.1% BSA, 2 mM HEPES. 100 μl of that same buffer was left in each well.
(§10) Within the Fluorescent Imaging Plate Reader (FLIPR, Molecular Devices), antagonists were added to the plate in a volume of 50 μl, incubated for 20 min and finally 100 μl of agonist was added. Fluorescence was measured for each well at 1 second intervals, and the height of each fluorescence peak was compared to the height of the fluorescence peak induced by 10 nM orexin-A with buffer in place of antagonist. For each antagonist; IC50 values (the concentration of compound needed to inhibit 50% of the agonistic response) were determined.

[2] = target: T2, human orexin-2 receptor (Homo sapiens, UniProt O43614); assay: Intracellular calcium measurements (FLIPR), OX2 receptor antagonist activity; format: cell-based; settings: CHO cells expressing human orexin-2 receptor; 10 nM orexin-A as agonist; fluo-3 calcium signal
T2 construct: expressed in transfected cells; host or cells: CHO cells (G418 selection)
T2 sequence (O43614 1-444): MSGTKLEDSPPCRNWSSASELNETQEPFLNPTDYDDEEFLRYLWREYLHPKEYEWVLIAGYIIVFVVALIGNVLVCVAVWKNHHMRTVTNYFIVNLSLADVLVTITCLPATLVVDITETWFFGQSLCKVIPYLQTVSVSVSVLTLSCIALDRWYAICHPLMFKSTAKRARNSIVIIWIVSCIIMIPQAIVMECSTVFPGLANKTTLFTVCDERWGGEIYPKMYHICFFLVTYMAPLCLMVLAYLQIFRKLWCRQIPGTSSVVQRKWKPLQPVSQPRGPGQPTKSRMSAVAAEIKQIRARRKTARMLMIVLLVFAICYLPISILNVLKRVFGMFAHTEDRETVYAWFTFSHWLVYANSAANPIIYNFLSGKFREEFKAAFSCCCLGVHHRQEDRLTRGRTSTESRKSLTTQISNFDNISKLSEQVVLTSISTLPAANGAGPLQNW
Protocol: as §1, §2, §3, §4, §5, §6, §7, §8, §9, §10

Row | IC50 [1] | IC50 [2] | SMILES
1 | 64 nM | 7900 nM | COc1ccc(CC2c3cc(OC)c(OC)cc3OCCN2CC(=O)NC2CCc3ccccc32)cc1OC (racemic) [Example 5, 2-[5-(3,4-Dimethoxy-benzyl)-7,8-dimethoxy-2,3-dihydro-5H-benzo[f][1,4]oxazepin-4-yl]-N-indan-1-yl-acetamide]
2 | 99 nM | > 10000 nM | COc1ccc(CC2c3cc(OC)c(OC)cc3CCCN2CC(=O)NC2Cc3ccccc3C2)cc1OC (centres unmarked) [Example 3, 2-[1-(3,4-Dimethoxy-benzyl)-7,8-dimethoxy-1,3,4,5-tetrahydro-benzo[c]azepin-2-yl]-N-indan-2-yl-acetamide]
3 | 23 nM | 1240 nM | COc1ccc(CC2c3cc(OC)c(OC)cc3CCCN2CC(=O)NC2CCc3ccccc32)cc1OC (centres unmarked) [Example 9, 2-[1-(3,4-Dimethoxy-benzyl)-7,8-dimethoxy-1,3,4,5-tetrahydro-benzo[c]azepin-2-yl]-N-indan-1-yl-acetamide]
4 | 23 nM | 231 nM | COc1ccc(CC2c3cc(OC)c(OC)cc3CCCN2C(C(=O)NC2Cc3ccccc3C2)c2ccccc2)cc1OC (centres unmarked) [Example 20, 2-[1-(3,4-Dimethoxy-benzyl)-7,8-dimethoxy-1,3,4,5-tetrahydro-benzo[c]azepin-2-yl]-N-indan-2-yl-2-phenyl-acetamide]
5 | 21 nM | 189 nM | COc1ccc(CC2c3cc(OC)c(OC)cc3CCCN2C(C(=O)NCc2ccc3c(c2)OCO3)c2ccccc2)cc1OC (centres unmarked) [Example 23, N-Benzo[1,3]dioxol-5-ylmethyl-2-[1-(3,4-dimethoxy-benzyl)-7,8-dimethoxy-1,3,4,5-tetrahydro-benzo[c]azepin-2-yl]-2-phenyl-acetamide]
6 | 41 nM | 241 nM | COc1ccc(CC2c3cc(OC)c(OC)cc3CCCN2C(C(=O)NCc2ccco2)c2ccccc2)cc1OC (centres unmarked) [Example 25, 2-[1-(3,4-Dimethoxy-benzyl)-7,8-dimethoxy-1,3,4,5-tetrahydro-benzo[c]azepin-2-yl]-N-furan-2-ylmethyl-2-phenyl-acetamide]
7 | 41 nM | 9190 nM | COC(=O)CCNC(=O)C(c1ccccc1)N1CCCc2cc(OC)c(OC)cc2C1Cc1ccc(OC)c(OC)c1 (centres unmarked) [Example 34, 3-{2-[1-(3,4-Dimethoxy-benzyl)-7,8-dimethoxy-1,3,4,5-tetrahydro-benzo[c]azepin-2-yl]-2-phenyl-acetylamino}-propionic acid methyl ester]
8 | 32 nM | 7040 nM | COc1ccc(CC2c3cc(OC)c(OC)cc3CCCN2C(C(=O)NCc2nc3ccccc3[nH]2)c2ccccc2)cc1OC (centres unmarked) [Example 35, N-(1H-Benzoimidazol-2-ylmethyl)-2-[1-(3,4-dimethoxy-benzyl)-7,8-dimethoxy-1,3,4,5-tetrahydro-benzo[c]azepin-2-yl]-2-phenyl-acetamide]
9 | 12 nM | 174 nM | COc1ccc(CC2c3cc(OC(C)C)c(OC)cc3CCCN2CC(=O)NC2CCc3ccccc32)cc1OC (centres unmarked) [Example 68, 2-[1-(3,4-Dimethoxy-benzyl)-8-isopropoxy-7-methoxy-1,3,4,5-tetrahydro-benzo[c]azepin-2-yl]-N-indan-1-yl-acetamide]
10 | 9 nM | 349 nM | COc1ccc(CC2c3cc(OCC(F)F)c(OC)cc3CCCN2CC(=O)NC2CCc3ccccc32)cc1OC (centres unmarked) [Example 69, 2-[8-(2,2-Difluoro-ethoxy)-1-(3,4-dimethoxy-benzyl)-7-methoxy-1,3,4,5-tetrahydro-benzo[c]azepin-2-yl]-N-indan-1-yl-acetamide]
